# In ChEMBL document CHEMBL3774345, “Synthesis of new diarylamides with pyrimidinyl pyridine scaffold and evaluation of their anti-proliferative effect on cancer cell lines” (Bioorg Med Chem Lett, 2016):
# Tests used:
# [1] = Cytotoxicity against human PC3 cells assessed as growth inhibition at 10 uM after 24 hrs by SRB assay; assay type: functional; settings: PC-3, 24 h, read-out: GI
# [2] = Cytotoxicity against human HL-60(TB) cells assessed as cell growth at 10^-6 M after 24 hrs by SRB assay; assay type: functional; settings: HL-60, 24 h, read-out: Activity
# [3] = Cytotoxicity against human RXF393 cells assessed as cell growth at 10^-4 M after 24 hrs by SRB assay; assay type: functional; settings: RXF 393, 24 h, read-out: Activity
# [4] = Cytotoxicity against human TK10 cells assessed as cell growth at 10^-6 M after 24 hrs by SRB assay; assay type: functional; settings: TK-10, 24 h, read-out: Activity
# NCI-H322M [5] = assay: Cytotoxicity against human NCI-H322M cells assessed as cell growth at 10^-8 M after 24 hrs by SRB assay; assay type: functional; settings: read-out: Activity
# [6] = Cytotoxicity against human SF295 cells after 24 hrs by SRB assay; assay type: functional, cell-based; settings: SF-295, 24 h
# [7] = Cytotoxicity against human MOLT4 cells after 24 hrs by SRB assay; assay type: functional; settings: MOLT-4, 24 h
# [8] = Cytotoxicity against human OVCAR4 cells assessed as cell growth at 10^-5 M after 24 hrs by SRB assay; assay type: functional; settings: OVCAR-4, 24 h, read-out: Activity
# A549 [9] = assay: Cytotoxicity against human A549 cells assessed as cell growth at 10^-4 M after 24 hrs by SRB assay; assay type: functional; settings: A549, 24 h, read-out: Activity
# HT-29 = assay: Cytotoxicity against human HT-29 cells assessed as cell growth at 10^-5 M after 24 hrs by SRB assay; assay type: functional; settings: HT-29, 24 h, read-out: Activity
# [10] = Cytotoxicity against human TK10 cells assessed as cell growth at 10^-8 M after 24 hrs by SRB assay; assay type: functional; settings: TK-10, 24 h, read-out: Activity
# NCI-H322M [11] = assay: Cytotoxicity against human NCI-H322M cells assessed as cell growth at 10^-5 M after 24 hrs by SRB assay; assay type: functional; settings: read-out: Activity
# [12] = Cytotoxicity against human BT549 cells assessed as cell growth at 10^-8 M after 24 hrs by SRB assay; assay type: functional; settings: BT-549, 24 h, read-out: Activity
# [13] = Cytotoxicity against human BT549 cells after 24 hrs by SRB assay; assay type: functional; settings: BT-549, 24 h
# U-251 = assay: Cytotoxicity against human U251 cells after 24 hrs by SRB assay; assay type: functional; settings: U-251, 24 h
# [14] = Cytotoxicity against human OVCAR3 cells assessed as cell growth at 10^-8 M after 24 hrs by SRB assay; assay type: functional; settings: OVCAR-3, 24 h, read-out: Activity
# [15] = Cytotoxicity against human RXF393 cells assessed as cell growth at 10^-5 M after 24 hrs by SRB assay; assay type: functional; settings: RXF 393, 24 h, read-out: Activity
# CCRF-CEM = assay: Cytotoxicity against human CCRF-CEM cells assessed as cell growth at 10^-5 M after 24 hrs by SRB assay; assay type: functional; settings: read-out: Activity
# [16] = Cytotoxicity against human HOP92 cells after 24 hrs by SRB assay; assay type: functional, cell-based; settings: HOP-92, 24 h
# NCI-H460 [17] = assay: Cytotoxicity against human NCI-H460 cells assessed as cell growth at 10^-7 M after 24 hrs by SRB assay; assay type: functional; settings: NCI-H460, 24 h, read-out: Activity
# [18] = Cytotoxicity against human LOXIMVI cells assessed as cell growth at 10^-6 M after 24 hrs by SRB assay; assay type: functional; settings: LOX IMVI, read-out: Activity
# T47D = assay: Cytotoxicity against human T47D cells assessed as cell growth at 10^-7 M after 24 hrs by SRB assay; assay type: functional; settings: read-out: Activity
# K562 = assay: Cytotoxicity against human K562 cells assessed as cell growth at 10^-5 M after 24 hrs by SRB assay; assay type: functional; settings: K562, 24 h, read-out: Activity
# NCI-H460 [19] = assay: Cytotoxicity against human NCI-H460 cells after 24 hrs by SRB assay; assay type: functional; settings: NCI-H460, 24 h
# [20] = Cytotoxicity against human DU145 cells assessed as cell growth at 10^-5 M after 24 hrs by SRB assay; assay type: functional; settings: DU-145, 24 h, read-out: Activity
# [21] = Cytotoxicity against human UACC62 cells assessed as cell growth at 10^-4 M after 24 hrs by SRB assay; assay type: functional; settings: UACC-62, 24 h, read-out: Activity
# [22] = Cytotoxicity against human Caki1 cells assessed as cell growth at 10^-4 M after 24 hrs by SRB assay; assay type: functional; settings: CAKI-1, 24 h, read-out: Activity
# [23] = Cytotoxicity against human UACC257 cells after 24 hrs by SRB assay; assay type: functional; settings: UACC-257, 24 h
# SK-MEL-2 = assay: Cytotoxicity against human SK-MEL-2 cells assessed as cell growth at 10^-6 M after 24 hrs by SRB assay; assay type: functional; settings: SK-MEL-2, 24 h, read-out: Activity
# [24] = Cytotoxicity against human OVCAR3 cells after 24 hrs by SRB assay; assay type: functional; settings: OVCAR-3, 24 h
# A549 [25] = assay: Cytotoxicity against human A549 cells after 24 hrs by SRB assay; assay type: functional; settings: A549, 24 h
# [26] = read-out: LC50 (the source's name)
# [27] = read-out: pLC50 (the source's name) (converted)
compound,measurement,setting,value
COCCCNc1nc(NC(=O)c2cc(Br)cc(C(F)(F)F)c2)cc(-c2cccnc2)n1,inhibition of growth at 10 µM,[1],29.4%
O=C(Nc1cc(-c2cccnc2)nc(NCCCN2CCOCC2)n1)c1cc(Br)cc(C(F)(F)F)c1,growth at 1 µM,[2],88%
same,growth at 100 µM,[3],-86%
same,growth at 1 µM,[4],88%
same,growth at 0.01 µM,NCI-H322M [5],98%
same,GI50,[6]; read-out: GI50,1.94 µM
same,CC50,[6]; [26],7.97 µM
same,TGI,[6]; read-out: TGI,3.93 µM
same,GI50,[6]; read-out: pGI50 (converted),1.95 µM
same,CC50,[6]; [27],7.94 µM
same,TGI,[6]; read-out: pTGI (converted),3.89 µM
same,GI50,[7]; read-out: GI50,3.63 µM
same,CC50,[7]; [26],59.6 µM
same,TGI,[7]; read-out: TGI,13.1 µM
same,GI50,[7]; read-out: pGI50 (converted),3.63 µM
same,CC50,[7]; [27],60.3 µM
same,TGI,[7]; read-out: pTGI (converted),13.2 µM
same,growth at 10 µM,[8],18%
same,growth at 100 µM,A549 [9],-95%
same,growth at 10 µM,HT-29,-41%
same,growth at 0.01 µM,[10],91%
same,growth at 10 µM,NCI-H322M [11],19%
same,growth at 0.01 µM,[12],95%
same,GI50,[13]; read-out: GI50,3.27 µM
same,CC50,[13]; [26],45 µM
same,TGI,[13]; read-out: TGI,15 µM
same,GI50,[13]; read-out: pGI50 (converted),3.24 µM
same,CC50,[13]; [27],44.7 µM
same,TGI,[13]; read-out: pTGI (converted),15.1 µM
same,GI50,U-251; read-out: GI50,2.05 µM
same,CC50,U-251; [26],9.04 µM
same,TGI,U-251; read-out: TGI,4.3 µM
same,GI50,U-251; read-out: pGI50 (converted),2.04 µM
same,CC50,U-251; [27],9.12 µM
same,TGI,U-251; read-out: pTGI (converted),4.27 µM
same,growth at 0.01 µM,[14],105%
same,growth at 10 µM,[15],-73%
same,growth at 10 µM,CCRF-CEM,6%
same,IC50,[16],1.97 µM
same,GI50,[16]; read-out: GI50,1.97 µM
same,CC50,[16]; [26],29.9 µM
same,TGI,[16]; read-out: TGI,7.62 µM
same,GI50,[16]; read-out: pGI50 (converted),1.95 µM
same,CC50,[16]; [27],30.2 µM
same,TGI,[16]; read-out: pTGI (converted),7.59 µM
same,growth at 0.1 µM,NCI-H460 [17],100%
same,growth at 1 µM,[18],88%
same,growth at 0.1 µM,T47D,91%
same,growth at 10 µM,K562,4%
same,GI50,NCI-H460 [19]; read-out: GI50,2.97 µM
same,CC50,NCI-H460 [19]; [26],44.1 µM
same,TGI,NCI-H460 [19]; read-out: TGI,8.94 µM
same,GI50,NCI-H460 [19]; read-out: pGI50 (converted),2.95 µM
same,CC50,NCI-H460 [19]; [27],43.7 µM
same,TGI,NCI-H460 [19]; read-out: pTGI (converted),8.91 µM
same,growth at 10 µM,[20],39%
same,growth at 100 µM,[21],-90%
same,growth at 100 µM,[22],-100%
same,GI50,[23]; read-out: GI50,2.1 µM
same,CC50,[23]; [26],6.8 µM
same,TGI,[23]; read-out: TGI,3.78 µM
same,GI50,[23]; read-out: pGI50 (converted),2.09 µM
same,CC50,[23]; [27],6.76 µM
same,TGI,[23]; read-out: pTGI (converted),3.8 µM
same,growth at 1 µM,SK-MEL-2,94%
same,GI50,[24]; read-out: GI50,3.7 µM
same,CC50,[24]; [26],35.8 µM
same,TGI,[24]; read-out: TGI,12.8 µM
same,GI50,[24]; read-out: pGI50 (converted),3.72 µM
same,CC50,[24]; [27],35.5 µM
same,TGI,[24]; read-out: pTGI (converted),12.9 µM
same,GI50,A549 [25]; read-out: GI50,10.1 µM
same,CC50,A549 [25]; [26],48.8 µM
same,TGI,A549 [25]; read-out: TGI,22.2 µM
same,GI50,A549 [25]; read-out: pGI50 (converted),10 µM
same,CC50,A549 [25]; [27],49 µM
same,TGI,A549 [25]; read-out: pTGI (converted),22.4 µM
